Assay results as given in US9951063B2, “8-(piperazin-1-yl)-1,2,3,4-tetrahydro-isoquinoline derivatives” (IDORSIA PHARMACEUTICALS LTD, priority 2014, dated 2018).

Target: human CXCR3A (Homo sapiens (Human), UniProt P49682)
Assay: FLIPR assay (inhibition of CXCL10-induced calcium signal)
Type: cell-based
Settings: engineered CHO-K1 cells expressing human CXCR3A coupled to Galpha(16); Fluo-4-AM; CXCL10 agonist 20 nM; mean values where determined several times
Method: The bioactivity of compounds is tested in a fluorometric imaging plate reader (FLIPR: Molecular Devices) using engineered CHO-K1 cells expressing the human CXCR3A (GenBank: AY242128) coupled to a G protein (Galpha(16)). Cells are plated the day prior to bioassay in F12 medium supplemented with 10% FBS and G418 and hygromycin antibiotics to maintain recombinant selection. At the day of bioassay, cells are washed and dye loaded for one hour with Fluo-4-AM (Invitrogen) in Hanks Balanced Salt Solution (Invitrogen), buffered with 20 mM Hepes at pH 7.4 and sodium bicarbonate (0.038%), containing 5 mM probenecid. This buffer, but lacking the dye and containing probenecid at a concentration of 2.5 mM, is also used for washing steps (wash buffer); or lacking both dye and probenecid but supplemented with 0.1% BSA for compound dilution steps (dilution buffer). Cells are washed free of excess dye and 60 microliter of wash buffer is added. Stock solutions of test compounds are made up at a concentration of 10 mM in DMSO, and serially diluted in dilution buffer to concentrations required for inhibition dose response curves. After a 10 minute incubation period at 37° C., 10 microliters of each compound dilution are transferred from a compound plate to the plate containing the recombinant cells in the FLIPR instrument according to the manufacturer's instructions. Following basal readings, 10 microliter CXCL10 agonist at a concentration of 20 nM (from Peprotech) is added, again using the FLIPR instrument. Changes in fluorescence are monitored before and after addition of the test compounds. Emission peak values above base level after CXCL10 addition are exported after base line subtraction.
The calculated IC50 values may fluctuate depending on the daily assay performance. Fluctuations of this kind are known to those skilled in the art. In the case where IC50 values have been determined several times for the same compound, mean values are given.

human CXCR3A, sequence (P49682 whole entry): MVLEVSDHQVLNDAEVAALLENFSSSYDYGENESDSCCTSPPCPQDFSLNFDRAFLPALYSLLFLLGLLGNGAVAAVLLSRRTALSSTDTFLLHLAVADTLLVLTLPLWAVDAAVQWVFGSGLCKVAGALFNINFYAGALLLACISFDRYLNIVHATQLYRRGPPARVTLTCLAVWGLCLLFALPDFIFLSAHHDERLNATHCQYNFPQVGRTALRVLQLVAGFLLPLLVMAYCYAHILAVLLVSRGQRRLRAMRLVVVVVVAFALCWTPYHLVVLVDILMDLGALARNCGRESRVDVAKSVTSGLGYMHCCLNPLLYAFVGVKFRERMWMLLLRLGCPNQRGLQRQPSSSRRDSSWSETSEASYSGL

Structure (SMILES) | IC50 [µM]
COc1ncc(N2CCc3c(C(F)(F)F)ccc(N4CCN(C(=O)Cn5nc(C)cc5C)[C@H](C)C4)c3C2)cn1 [Example 24, 2-(3,5-Dimethyl-pyrazol-1-yl)-1-{(R)-4-[2-(2-methoxy-pyrimidin-5-yl)-5-trifluoromethyl-1,2,3,4-tetrahydro-isoquinolin-8-yl]-2-methyl-piperazin-1-yl}-ethanone] | 0.0037
COc1ncc(N2CCc3c(C(F)(F)F)ccc(N4CCN(C(=O)Cn5cccn5)[C@H](C)C4)c3C2)cn1 [Example 25, 1-{(R)-4-[2-(2-Methoxy-pyrimidin-5-yl)-5-trifluoromethyl-1,2,3,4-tetrahydro-isoquinolin-8-yl]-2-methyl-piperazin-1-yl}-2-pyrazol-1-yl-ethanone] | 0.024
COc1ncc(N2CCc3c(C(F)(F)F)ccc(N4CCN(C(=O)Cn5nccn5)[C@H](C)C4)c3C2)cn1 [Example 26, 1-{(R)-4-[2-(2-Methoxy-pyrimidin-5-yl)-5-trifluoromethyl-1,2,3,4-tetrahydro-isoquinolin-8-yl]-2-methyl-piperazin-1-yl}-2-[1,2,3]triazol-2-yl-ethanone] | 0.0985
COc1ncc(N2CCc3c(C(F)(F)F)ccc(N4CCN(C(=O)CCn5cccn5)[C@H](C)C4)c3C2)cn1 [Example 27, 1-{(R)-4-[2-(2-Methoxy-pyrimidin-5-yl)-5-trifluoromethyl-1,2,3,4-tetrahydro-isoquinolin-8-yl]-2-methyl-piperazin-1-yl}-3-pyrazol-1-yl-propan-1-one] | 0.908
CCOc1ncc(N2CCc3c(C(F)(F)F)ccc(N4CCN(C(=O)Cn5cnc6cccnc65)CC4)c3C2)cn1 [Example 28, 1-{4-[2-(2-Ethoxy-pyrimidin-5-yl)-5-trifluoromethyl-1,2,3,4-tetrahydro-isoquinolin-8-yl]-piperazin-1-yl}-2-imidazo[4,5-b]pyridin-3-yl-ethanone] | 0.0024
CCOc1ncc(N2CCc3c(C(F)(F)F)ccc(N4CCN(C(=O)Cn5nc(C)cc5C)CC4)c3C2)cn1 [Example 29, 2-(3,5-Dimethyl-pyrazol-1-yl)-1-{4-[2-(2-ethoxy-pyrimidin-5-yl)-5-trifluoromethyl-1,2,3,4-tetrahydro-isoquinolin-8-yl]-piperazin-1-yl}-ethanone] | 0.0305
CCOc1ncc(N2CCc3c(C(F)(F)F)ccc(N4CCN(C(=O)Cn5nc(C)nc5C)CC4)c3C2)cn1 [Example 30, 2-(3,5-Dimethyl-[1,2,4]triazol-1-yl)-1-{4-[2-(2-ethoxy-pyrimidin-5-yl)-5-trifluoromethyl-1,2,3,4-tetrahydro-isoquinolin-8-yl]-piperazin-1-yl}-ethanone] | 0.0138
CCOc1ncc(N2CCc3c(C(F)(F)F)ccc(N4CCN(C(=O)Cn5ncc6cccnc65)CC4)c3C2)cn1 [Example 31, 1-{4-[2-(2-Ethoxy-pyrimidin-5-yl)-5-trifluoromethyl-1,2,3,4-tetrahydro-isoquinolin-8-yl]-piperazin-1-yl}-2-pyrazolo[3,4-b]pyridin-1-yl-ethanone] | 0.0115
CCOc1ncc(N2CCc3c(C(F)(F)F)ccc(N4CCN(C(=O)Cn5cc6cccnc6n5)CC4)c3C2)cn1 [Example 32, 1-{4-[2-(2-Ethoxy-pyrimidin-5-yl)-5-trifluoromethyl-1,2,3,4-tetrahydro-isoquinolin-8-yl]-piperazin-1-yl}-2-pyrazolo[3,4-b]pyridin-2-yl-ethanone] | 0.00983
CCOc1ncc(N2CCc3c(C(F)(F)F)ccc(N4CCN(C(=O)CN5C(=O)Cc6ccccc65)CC4)c3C2)cn1 [Example 33, 1-(2-{4-[2-(2-Ethoxy-pyrimidin-5-yl)-5-trifluoromethyl-1,2,3,4-tetrahydro-isoquinolin-8-yl]-piperazin-1-yl}-2-oxo-ethyl)-1,3-dihydro-indol-2-one] | 0.0109

Continued, values first:

IC50 [µM] | Structure (SMILES)
0.0167 | CCOc1ncc(N2CCc3c(C(F)(F)F)ccc(N4CCN(C(=O)Cn5cnc6cccnc65)[C@@H](C)C4)c3C2)cn1 [Example 34, 1-{(S)-4-[2-(2-Ethoxy-pyrimidin-5-yl)-5-trifluoromethyl-1,2,3,4-tetrahydro-isoquinolin-8-yl]-2-methyl-piperazin-1-yl}-2-imidazo[4,5-b]pyridin-3-yl-ethanone]
0.0308 | CCOc1ncc(N2CCc3c(C(F)(F)F)ccc(N4CCN(C(=O)Cn5nc(C)cc5C)[C@@H](C)C4)c3C2)cn1 [Example 35, 2-(3,5-Dimethyl-pyrazol-1-yl)-1-{(S)-4-[2-(2-ethoxy-pyrimidin-5-yl)-5-trifluoromethyl-1,2,3,4-tetrahydro-isoquinolin-8-yl]-2-methyl-piperazin-1-yl}-ethanone]
0.00627 | CCOc1ncc(N2CCc3c(C(F)(F)F)ccc(N4CCN(C(=O)Cn5ccc(C)n5)[C@@H](C)C4)c3C2)cn1 [Example 36, 1-{(S)-4-[2-(2-Ethoxy-pyrimidin-5-yl)-5-trifluoromethyl-1,2,3,4-tetrahydro-isoquinolin-8-yl]-2-methyl-piperazin-1-yl}-2-(3-methyl-pyrazol-1-yl)-ethanone]
0.0309 | CCOc1ncc(N2CCc3c(C(F)(F)F)ccc(N4CCN(C(=O)CN5CCc6cccnc65)[C@@H](C)C4)c3C2)cn1 [Example 37, 2-(2,3-Dihydro-pyrrolo[2,3-b]pyridin-1-yl)-1-{(S)-4-[2-(2-ethoxy-pyrimidin-5-yl)-5-trifluoromethyl-1,2,3,4-tetrahydro-isoquinolin-8-yl]-2-methyl-piperazin-1-yl}-ethanone]
0.0158 | Cc1nc(C)n(CC(=O)N2CCN(c3ccc(C(F)(F)F)c4c3CN(c3nc5ccc(F)cc5s3)CC4)C[C@H]2C)n1 [Example 38, 2-(3,5-Dimethyl-[1,2,4]triazol-1-yl)-1-{(R)-4-[2-(6-fluoro-benzothiazol-2-yl)-5-trifluoromethyl-1,2,3,4-tetrahydro-isoquinolin-8-yl]-2-methyl-piperazin-1-yl}-ethanone]
0.0735 | C[C@@H]1CN(c2ccc(C(F)(F)F)c3c2CN(c2nc4ccc(F)cc4s2)CC3)CCN1C(=O)Cn1ncc2cccnc21 [Example 39, 1-{(R)-4-[2-(6-Fluoro-benzothiazol-2-yl)-5-trifluoromethyl-1,2,3,4-tetrahydro-isoquinolin-8-yl]-2-methyl-piperazin-1-yl}-2-pyrazolo[3,4-b]pyridin-1-yl-ethanone]
0.049 | Cc1ccn(CC(=O)N2CCN(c3ccc(C(F)(F)F)c4c3CN(c3nc5ccc(F)cc5s3)CC4)C[C@H]2C)n1 [Example 40, 1-{(R)-4-[2-(6-Fluoro-benzothiazol-2-yl)-5-trifluoromethyl-1,2,3,4-tetrahydro-isoquinolin-8-yl]-2-methyl-piperazin-1-yl}-2-(3-methyl-pyrazol-1-yl)-ethanone]
0.0514 | Cc1ccnn1CC(=O)N1CCN(c2ccc(C(F)(F)F)c3c2CN(c2nc4ccc(F)cc4s2)CC3)C[C@H]1C [Example 41, 1-{(R)-4-[2-(6-Fluoro-benzothiazol-2-yl)-5-trifluoromethyl-1,2,3,4-tetrahydro-isoquinolin-8-yl]-2-methyl-piperazin-1-yl}-2-(5-methyl-pyrazol-1-yl)-ethanone]
0.00829 | Cc1nc(C)n(CC(=O)N2CCN(c3ccc(C(F)(F)F)c4c3CN(c3nc(C(F)(F)F)cs3)CC4)C[C@H]2C)n1 [Example 42, 2-(3,5-Dimethyl-[1,2,4]triazol-1-yl)-1-{(R)-2-methyl-4-[5-trifluoromethyl-2-(4-trifluoromethyl-thiazol-2-yl)-1,2,3,4-tetrahydro-isoquinolin-8-yl]-piperazin-1-yl}-ethanone]
0.0386 | C[C@@H]1CN(c2ccc(C(F)(F)F)c3c2CN(c2nc(C(F)(F)F)cs2)CC3)CCN1C(=O)Cn1ncc2cccnc21 [Example 43, 1-{(R)-2-Methyl-4-[5-trifluoromethyl-2-(4-trifluoromethyl-thiazol-2-yl)-1,2,3,4-tetrahydro-isoquinolin-8-yl]-piperazin-1-yl}-2-pyrazolo[3,4-b]pyridin-1-yl-ethanone]
0.012 | Cc1ccn(CC(=O)N2CCN(c3ccc(C(F)(F)F)c4c3CN(c3nc(C(F)(F)F)cs3)CC4)C[C@H]2C)n1 [Example 44, 2-(3-Methyl-pyrazol-1-yl)-1-{(R)-2-methyl-4-[5-trifluoromethyl-2-(4-trifluoromethyl-thiazol-2-yl)-1,2,3,4-tetrahydro-isoquinolin-8-yl]-piperazin-1-yl}-ethanone]
0.0127 | Cc1ccnn1CC(=O)N1CCN(c2ccc(C(F)(F)F)c3c2CN(c2nc(C(F)(F)F)cs2)CC3)C[C@H]1C [Example 45, 2-(5-Methyl-pyrazol-1-yl)-1-{(R)-2-methyl-4-[5-trifluoromethyl-2-(4-trifluoromethyl-thiazol-2-yl)-1,2,3,4-tetrahydro-isoquinolin-8-yl]-piperazin-1-yl}-ethanone]
0.00437 | Cc1nc(C)n(CC(=O)N2CCN(c3ccc(C(F)(F)F)c4c3CN(c3cnc(C5CC5)nc3)CC4)C[C@H]2C)n1 [Example 46, 1-{(R)-4-[2-(2-Cyclopropyl-pyrimidin-5-yl)-5-trifluoromethyl-1,2,3,4-tetrahydro-isoquinolin-8-yl]-2-methyl-piperazin-1-yl}-2-(3,5-dimethyl-[1,2,4]triazol-1-yl)-ethanone]
